Test system: ASPS-1 complex tumor spheroids, viability
Assay: Anticancer human tumor ASPS-1 cell line growth inhibition;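 also: spheroids exposed to agents for 7 days after 3 days of growth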;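 as to viability, T/C: 100% = DMSO vehicle treated spheroids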
Conditions: for IC50: curve of first compound; for viability, T/C: stronger effect = lower value
In short: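 Single agents and combinations were tested on spheroids built from tumor cells plus HUVEC and hMSC, at half-log dilutions starting at or near clinical Cmax, else 10 microM; final DMSO 0.25% (v/v).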

[1] = second compound 30 pM, first compound 0.00949 µM
[2] = second compound 30 pM, first compound 0.03 µM
[3] = second compound 30 pM, first compound 0.0949 µM
[4] = second compound 30 pM, first compound 0.3 µM
[5] = second compound 30 pM, first compound 0.949 µM
[6] = second compound 30 pM, first compound 3 µM
[7] = second compound 94.9 pM, first compound 0.00949 µM
[8] = second compound 94.9 pM, first compound 0.03 µM
[9] = second compound 94.9 pM, first compound 0.0949 µM
[10] = second compound 94.9 pM, first compound 0.3 µM
[11] = second compound 94.9 pM, first compound 0.949 µM
[12] = second compound 94.9 pM, first compound 3 µM
[13] = second compound 0.0003 µM, first compound 0.00949 µM
[14] = second compound 0.0003 µM, first compound 0.03 µM
[15] = second compound 0.0003 µM, first compound 0.0949 µM
[16] = second compound 0.0003 µM, first compound 0.3 µM
[17] = second compound 0.0003 µM, first compound 0.949 µM
[18] = second compound 0.0003 µM, first compound 3 µM
[19] = second compound 0.000949 µM, first compound 0.00949 µM
[20] = second compound 0.000949 µM, first compound 0.03 µM
[21] = second compound 0.000949 µM, first compound 0.0949 µM
[22] = second compound 0.000949 µM, first compound 0.3 µM
[23] = second compound 0.000949 µM, first compound 0.949 µM
[24] = second compound 0.000949 µM, first compound 3 µM
[25] = second compound 0.003 µM, first compound 0.00949 µM
[26] = second compound 0.003 µM, first compound 0.03 µM
[27] = second compound 0.003 µM, first compound 0.0949 µM
[28] = second compound 0.003 µM, first compound 0.3 µM
[29] = second compound 0.003 µM, first compound 0.949 µM
[30] = second compound 0.003 µM, first compound 3 µM

Row | Compound | IC50 (second compound 30 pM) [nM] | IC50 (second compound 94.9 pM) [nM] | IC50 (second compound 0.0003 µM) [nM] | IC50 (second compound 0.000949 µM) [nM] | IC50 (second compound 0.003 µM) [nM] | viability, T/C [3] [%] | viability, T/C [4] [%] | viability, T/C [5] [%] | viability, T/C [6] [%] | viability, T/C [9] [%] | viability, T/C [10] [%] | viability, T/C [11] [%] | viability, T/C [12] [%] | viability, T/C [15] [%] | viability, T/C [16] [%] | viability, T/C [17] [%] | viability, T/C [18] [%] | viability, T/C [21] [%] | viability, T/C [22] [%] | viability, T/C [23] [%] | other results
1 | CNCc1ccc(-c2cc(-c3nc(-c4ccc(S(=O)(=O)C(C)C)cc4)cnc3N)on2)cc1 + COc1cc2c(cc1O)CCNC21CSC2c3c(OC(C)=O)c(C)c4c(c3C(COC1=O)N1C(O)C3Cc5cc(C)c(OC)c(O)c5C(C21)N3C)OCO4 | 922 | 857 | 552 | 185 | < 9.49 | 105 | 74.3 | 51.9 | 14.9 | 108 | 80.8 | 48.3 | 9.57 | 102 | 66.4 | 34.7 | 5.83 | 64.9 | 36.1 | 20.2 | viability, T/C [1]: 109%; viability, T/C [2]: 104%; viability, T/C [7]: 106%; viability, T/C [8]: 108%; viability, T/C [13]: 106%; viability, T/C [14]: 111%; viability, T/C [19]: 85.8%; viability, T/C [20]: 83%; viability, T/C [24]: 1.09%; viability, T/C [25]: 16.9%; viability, T/C [26]: 24.3%; viability, T/C [27]: 15.2%; viability, T/C [28]: 2.85%; viability, T/C [29]: 0.66%; viability, T/C [30]: 0.65%
2 | Cn1ncnc1[C@H]1c2n[nH]c(=O)c3cc(F)cc(c23)N[C@@H]1c1ccc(F)cc1 + COc1cc2c(cc1O)CCNC21CSC2c3c(OC(C)=O)c(C)c4c(c3C(COC1=O)N1C(O)C3Cc5cc(C)c(OC)c(O)c5C(C21)N3C)OCO4 | > 3000 | > 3000 | 2230 | 562 | < 9.49 | 101 | 101 | 89.3 | 62.8 | 98 | 94 | 88.8 | 57.5 | 85.2 | 83.3 | 75.4 | 40.9 | 56.7 | 59.7 | 45.1 | viability, T/C [1]: 102%; viability, T/C [2]: 93.8%; viability, T/C [7]: 97.3%; viability, T/C [8]: 97.2%; viability, T/C [13]: 86%; viability, T/C [14]: 89.8%; viability, T/C [19]: 70.3%; viability, T/C [20]: 63.5%; viability, T/C [24]: 28.4%; viability, T/C [25]: 21.5%; viability, T/C [26]: 21.8%; viability, T/C [27]: 19.4%; viability, T/C [28]: 16.6%; viability, T/C [29]: 13.3%; viability, T/C [30]: 4.87%
3 | O=C(c1cc(Cc2n[nH]c(=O)c3ccccc23)ccc1F)N1CCN(C(=O)C2CC2)CC1 + COc1cc2c(cc1O)CCNC21CSC2c3c(OC(C)=O)c(C)c4c(c3C(COC1=O)N1C(O)C3Cc5cc(C)c(OC)c(O)c5C(C21)N3C)OCO4 | 26000 | 22100 | 13000 | 2080 | < 94.9 | 114 | 112 | 105 | 107 | 103 | 103 | 108 | 101 | 97.8 | 106 | 102 | 98.5 | 73 | 75.1 | 59.5 | viability, T/C (second compound 30 pM, first compound 9.49 µM): 106%; viability, T/C (second compound 30 pM, first compound 30 µM): 42.2%; viability, T/C (second compound 94.9 pM, first compound 9.49 µM): 98.6%; viability, T/C (second compound 94.9 pM, first compound 30 µM): 32.5%; viability, T/C (second compound 0.0003 µM, first compound 9.49 µM): 60.3%; viability, T/C (second compound 0.0003 µM, first compound 30 µM): 22.9%; viability, T/C [24]: 45.3%; viability, T/C (second compound 0.000949 µM, first compound 9.49 µM): 21.5%; viability, T/C (second compound 0.000949 µM, first compound 30 µM): 4.17%; viability, T/C [27]: 21.6%; viability, T/C [28]: 22.4%; viability, T/C [29]: 17.4%; viability, T/C [30]: 12.7%; viability, T/C (second compound 0.003 µM, first compound 9.49 µM): 3.59%; viability, T/C (second compound 0.003 µM, first compound 30 µM): 1.41%
